One experiment deals with glucagon. As to the kind of experiment: Insulin and Glucagon Inhibition In Dogs (L-alanine stimulation, serum glucagon by radioimmunoassay). The format is in vivo, dog. To be noted: for Result: inhibition of glucagon: fasted dog, L-alanine infusion; for inhibition of secretion of glucagon: dog stimulated with L-alanine, dose not stated. How it is done:
(§1) B. Insulin and Glucagon Inhibition In Dogs:
(§2) A normal dog is fasted overnight. An intravenous (I.V.) infusion of the test compound (dissolved in saline) is begun. Thirty minutes thereafter an additional infusion of L-alanine (dissolved in saline) is begun and is continued for a total of 15 minutes so that a total dose of about 1 mmole of L-alanine per kg. body weight is given. Infusion of the test compound is continued for an additional 15 minute period.
(§3) Blood samples are taken periodically before (at -20, -10 and -1 minutes) and after (5, 10, 15, 30, 35, 40, 45, 50, 60, 90, 120 and 150 minutes) the start of the infusion of the test compound. The serum insulin and serum glucagon concentrations in the blood are determined by radioimmunoassay. A plot is made of the glucagon and insulin concentrations versus time. The plot obtained from the test compound is compared to plots obtained from somatostatin and saline (controls) in similar experiments.
(§4) Infusion of L-alanine (in the absence of somatostatin or active test compound) causes an abrupt increase in serum insulin and glucagon concentrations. The concentrations return to basal levels after the L-alanine infusion is terminated. Infusion of somatostatin (alone) causes a decrease in basal serum concentrations of insulin and glucagon.

In another experiment the test system is insulin. As to the kind of experiment: Insulin and Glucagon Inhibition In Dogs (L-alanine stimulation, serum insulin by radioimmunoassay). The format is in vivo, dog. To be noted: for Result: inhibition of insulin: fasted dog, L-alanine infusion; for inhibition of secretion of insulin: dog stimulated with L-alanine, dose not stated. How it is done:
as §1, §2, §3, §4

In experiment [1] the test system is growth hormone (GH) secretion. Nature of the experiment: Growth Hormone Inhibition In Rats (pentobarbital-stimulated GH secretion, serum GH by radioimmunoassay). It counts as in vivo. To be noted: for GH Serum Conc.: male rats, sodium pentobarbital 4 mg/rat I.P., 20 minutes, Mean ± SEM; for % Inhibition: inhibition of GH release compared to saline controls. How it is done:
A. Growth Hormone Inhibition In Rats:
This test is a modification of the method of P. Brazeau et al. Endocrinology, 94, 184 (1974). Male rats (weighing 100-110 g.) are divided into three groups of eight rats each. Each rat is administered sodium pentobarbital at a dose of 4 mg/rat (I.P.) to stimulate growth hormone (GH) secretion. Simultaneously, one group of rats receives the test compound (S.C.); the second group receives somatostatin (S.C.); and the third group (control) receives saline (S.C.). Twenty- minutes later, the animals are decapitated and blood samples are collected. The serum concentration of growth hormone (GH) is determined by'radioimmunoassay. The mean GH concentration (+ standard error of the mean) is calculated for each group. The percent inhibition of GH release (as compared to saline controls) is then calculated for the test compound and for somatostatin. When tested as above-described, the peptides of Examples 2, 4, 6, 8 and 10, representative of the peptides of Formula III, gave the results set forth below in Table I: […]

Setting [2] is: I.V. infusion dose 0.05 µg/kg/min.
Setting [3] is: I.V. infusion dose 0.098, 0.181, 0.291 µg/kg/min.
The mark [4] stands for this setting: I.V. infusion dose 0.06 µg/kg/min.
Setting [5] is: I.V. infusion dose 0.20 µg/kg/min.
[6] abbreviates: infusion alone, without L-alanine, dog.

Values joined by “and” are separate entries in the source; they are usually repeats but may differ in a detail not shown here. Equal values may be shown once. Positions of bridges follow the written chain, without caps; N, C: chain ends. No end group written: not given here.

Take “D-Alanyl-glycyl-L-cysteinyl-L-lysyl-D-alanyl-L-phenylalanyl-L-phenylalanyl-D-tryptophyl-L-lysyl-L-threonyl-L-cyclohexylalanyl-L-threonyl-L-seryl-D-cysteine cyclic (3 -> 14) disulfide [Example 4]”: the “Result: inhibition of glucagon” value in the experiment with glucagon (setting [2]) is “No inhibition of glucagon and insulin”. For the same substance, in the experiment on glucagon, the “inhibition of secretion of glucagon” value is given as “did not inhibit”. Moreover, the “Result: inhibition of insulin” value in the experiment with insulin (setting [2]) is “No inhibition of glucagon and insulin”. The “inhibition of secretion of insulin” value with insulin is “did not inhibit”. Also, in experiment [1] (dose 2 µg/kg S.C.), the “GH Serum Conc.” value came to 5.5 ± 0.7 ng/mL and the % Inhibition (in general, how much of the control response was suppressed) was 95%. Further, in experiment [1] (dose 50 µg/kg S.C.), the “GH Serum Conc.” value came to 8.4 ± 3.4 ng/mL and the “% Inhibition” value turned out to be 92%.

As for “D-Alanyl-glycyl-L-cysteinyl-L-lysyl-D-alanyl-L-phenylalanyl-L-phenylalanyl-D-tryptophyl-L-lysyl-L-threonyl-L-phenylalanyl-L-threonyl-L-seryl-D-cysteine cyclic (3 -> 14) disulfide [Example 2]”, the “Result: inhibition of glucagon” value in the experiment with glucagon (setting [3]) is “No inhibition of glucagon and insulin”. Also, the “inhibition of secretion of glucagon” value in the experiment with glucagon is on record as “did not inhibit”. Further, in the experiment with insulin (setting [3]), the “Result: inhibition of insulin” value was “No inhibition of glucagon and insulin”. For the same substance, the “inhibition of secretion of insulin” value in the experiment with insulin is “did not inhibit”. The “GH Serum Conc.” value in experiment [1] (dose 0.25 µg/kg S.C.) is 51.0 ± 14.1 ng/mL; in experiment [1] (dose 1 µg/kg S.C.), 30.6 ± 16.0 ng/mL; in experiment [1] (dose 2 µg/kg S.C.), 7.1 ± 3.8 ng/mL; in experiment [1] (dose 2.5 µg/kg S.C.) it was 14.8 ± 10.9 ng/mL; in experiment [1] (dose 25 µg/kg S.C.), 2.8 ± 0.2 ng/mL; in experiment [1] (dose 50 µg/kg S.C.) it was 2.0 ± 0.3 ng/mL. The “% Inhibition” value is recorded as 37.4% in experiment [1] (dose 0.25 µg/kg S.C.); 79.8% in experiment [1] (dose 1 µg/kg S.C.); 94.9% in experiment [1] (dose 2 µg/kg S.C.); 81.8% in experiment [1] (dose 2.5 µg/kg S.C.); 98.2% in experiment [1] (dose 25 µg/kg S.C.); 98.6% in experiment [1] (dose 50 µg/kg S.C.).

For the substance “D-Seryl-glycyl-L-cysteinyl-L-lysyl-L-alanyl-L- phenylalanyl-L-phenylalanyl-D-tryptophyl-L-lysyl-L-threonyl-L-cyclohexylalanyl-L-threonyl-L-seryl-D- cysteine cyclic (3 -> 14) disulfide [Example 10]”, in the experiment on glucagon (setting [4]), the “Result: inhibition of glucagon” value was “Partial inhibition of glucagon and insulatum”. Also, in the experiment with insulin (setting [4]), the “Result: inhibition of insulin” value was “Partial inhibition of glucagon and insulatum”. Further, the “GH Serum Conc.” value in experiment [1] (dose 2 µg/kg S.C.) came out at 68.8 ± 28.2 ng/mL; in experiment [1] (dose 50 µg/kg S.C.), 2.2 ± 0.1 ng/mL. Further, the “% Inhibition” value is reported as 34% in experiment [1] (dose 2 µg/kg S.C.) and 98% in experiment [1] (dose 50 µg/kg S.C.).

As to “D-Seryl-glycyl-L-cysteinyl-L-lysyl-L-alanyl-L-phenylalanyl-L-phenylalanyl-D-tryptophyl-L-lysyl-L-threonyl-D-phenylalanyl-L-threonyl-L-seryl-D-cysteine cyclic (3 -> 14) 4isulfide [Example 8]”, the “Result: inhibition of glucagon” value in the experiment on glucagon (setting [5]) is “No inhibition of glucagon and insulin”. Also, the “inhibition of secretion of glucagon” value in the experiment with glucagon is on record as “did not inhibit”. For the same substance, in the experiment on insulin (setting [5]), the “Result: inhibition of insulin” value is “No inhibition of glucagon and insulin”. In the experiment with insulin, the “inhibition of secretion of insulin” value is on record as “did not inhibit”. In experiment [1] (dose 2 µg/kg S.C.), the “GH Serum Conc.” value is 79.6 ± 36.2 ng/mL and the “% Inhibition” value is reported as 0%. Moreover, in experiment [1] (dose 50 µg/kg S.C.), the “GH Serum Conc.” value stood at 40.0 ± 13.4 ng/mL and the “% Inhibition” value is recorded as 39%.

For “D-Seryl-glycyl-L-cysteinyl-L-lysyl-L-alanyl-L-phenylalanyl-L-phenylalanyl-D-tryptophyl-L-lysyl-L-threonyl-L-phenylalanyl-L-threonyl-L-seryl-D-cysteine cyclic (3 -> 14) disulfide [Example 6]”, the “Result: inhibition of glucagon” value with glucagon (setting [2]) was “Significant inhibition of glucagon and insulin”. In addition, the “Result: inhibition of insulin” value in the experiment with insulin (setting [2]) was “Significant inhibition of glucagon and insulin”. Besides, the “GH Serum Conc.” value stood at 15.5 ± 5.4 ng/mL in experiment [1] (dose 2 µg/kg S.C.) and 4.0 ± 0.5 ng/mL in experiment [1] (dose 50 µg/kg S.C.). In addition, the “% Inhibition” value in experiment [1] (dose 2 µg/kg S.C.) stood at 79%; in experiment [1] (dose 50 µg/kg S.C.), 95%.

Regarding “Somatostatin (AGCKNFFWKTFTSC; disulfide 3-14 (inferred); ends not checked; UniProt P61278 103-116, looked up) [reference compound]”, in the experiment with glucagon, the “inhibition of secretion of glucagon” value is “inhibits the increase”. Also, in the experiment on glucagon (setting [6]), the “basal serum concentration of glucagon” value is recorded as “decrease”. For the same substance, the “inhibition of secretion of insulin” value with insulin is “inhibits the increase”. In addition, in the experiment on insulin (setting [6]), the “basal serum concentration of insulin” value is reported as “decrease”. Also, in experiment [1] (dose 50 µg/kg S.C.), the “% Inhibition” value is 86.7% and 52.5% and 57.9% and 91% and 93% and 64% and 98%.

These data come from patent EP0022621A1, “Peptides related to somatostatin, their preparation and pharmaceutical compositions containing them” (ELI LILLY AND COMPANY, priority 1979, dated 1981).
